Results reported in US12083084B2, “Method for enhancing energy production and metabolism in cells” (REPLICON HEALTH OY, priority 2013, dated 2024).
“Also recorded” adds a separate entry of the source.

Experiments:
Format in all cases: cell-based
[1] = tested on: primary human hepatocytes; test: Cellular ROS detection (DCFDA) in primary human hepatocytes; conditions: primary human hepatocytes, moderate metabolic stress (1.5-2 h after change of medium)
Protocol: (§1) Primary human hepatocytes were purchased from Celsis In Vitro Technologies (1450 South Rolling Road Baltimore, MD 21227, USA). […] According to the information provided by the Celsis, hepatocytes from each donor should have at least 70% viability and more than 5 million viable cells. The medium for the culture of hepatocytes was provided by Celsis. They were InVitroGRO CP (for plating) medium (Z99029) and InVitroGRO HI (for incubation) medium (Z99009). Antibiotics (Torpedo Antibiotics Mix, Z990007) were also from Celsis. The thaw, plating and culture of cells were carried out according to the instruction provided by the Celsis In Vitro Technologies.
(§2) For the measurement of cell viability after treatment of test compound, CytoTox-One Homogeneous Membrane Integrity Assay kit (Promega, G7891) was used. The CytoTox-One Assay is a rapid fluorescent measure of the release of lactate dehydrogenase (LDH) from cells with a damaged membrane. The number of […] cells correlates to the fluorescence intensity determined by a fluorescence plate reader (Hidex Chameleon V multiplate reader, Hidex Oy, Turku, Finland) with excitation 544 nm and emission 590 nm. For the measurement of cellular reactive oxygen species (ROS), DCFDA Cellular ROS Detection Assay Kit from Abcam (ab113851) was used. Reactive oxygen species (ROS) assay kit (ab113851) uses the cell permeant reagent 2′,7′-dichlorofluorescein diacetate (DCFDA), a fluorogenic dye that measures hydroxyl, peroxyl and other ROS activity with the cell. The activity of ROS was measured by a fluorescence plate reader (Hidex) with excitation/emission wavelengths of 485 nm/535 nm.
(§3) The culture of primary hepatocytes was carried out based on the instructions provided by Celsis. After thawing, the cells were suspended in InVitroGRO CP medium. Thereafter the viability of cells was determined using the Trypan Blue exclusion method. Then the concentration of cells was adjusted using InVitroGRO CP medium, so about 30000-35000 cells/100 μl/well can be seeded in collagen I coated 96 well plate (BD, 734-0248).
(§4) After seeding, the cells were cultured overnight in the cell culture incubator (Sanyo MCO 18) at atmosphere of 95% air, 5% CO2 at 37° C. Thereafter, the culture medium for the cells was changed to InVitroGRO Hi (Hi Medium) containing test compound (D-glyceric acid calcium salt dehydrate) at the concentrations of 0, 0.2, 2 and 20 μg/ml (study 1, Table 1.1.1) and 0, 0.4, 2 and 10 μg/ml (study 2, Table 1.1.2).
In study 3 also LGA and HPA were tested and compared to DGA (see FIGS. 11c and 11d) with same doses as in study 2.
In studies 2-4 additional diet with 0.75 mM of palmitic acid (“fatty acid diet”) was added to Hi Medium. Hi Medium in itself contains ample amounts of glucose and fructose and other necessary ingredients for keeping viability of the cell culture at optimal level.
(§5) After 24 h (in study 1) and 20 h (in studies 2-4) incubation medium was renewed. Second renewal of the incubation medium occurred at 48 h in study 1 and at 40 h in other studies. ROS and LDH were measured after 1.5-2 hours after last change of the medium, i.e. in a situation with moderate metabolic stress.
The measurement of cellular reactive oxygen species (ROS) was carried out according to the instruction of Abcam (ab113851). At the end of treatment time point, culture medium was taken away for leaked LDH measurement and cells were washed with 100 μl/well PBS once. Thereafter 100 μl/well of DCDA mix was added and incubated for 45 min at 37° C. in the dark. Then cells were washed once with 1× buffer solution. The fluorescence signal was measured at an excitation wavelength of 485 nm and emission wavelength of 535 nm using the Hidex Chameleon V multiplate reader (Hidex Oy, Turku, Finland).
For the LDH and ROS assays, individual values of each measurement were stored and average value of fluorescence signals of various repeats of each treatment at studied time point were calculated and compared. […]

[2] = tested on: primary human hepatocytes; test: Cell viability by LDH release (CytoTox-One) in primary human hepatocytes; conditions: for viability compared to 0 dose (in words): primary human hepatocytes, standard treatment, moderate metabolic stress
Protocol: as §1, §2, §3, §4, §5
The measurement of LDH from medium (leaked LDH) and from cell and medium (total LDH) was carried out according to the instruction provided by the Promega (G7891). The plate was incubated at an incubator to achieve a temperature of 22° C. Thereafter, equal volume of CytoTox-ONE Reagent to cell culture medium (100 μl) was added to each well and mix for 30 seconds. Then they were incubated for 10 min at 22° C., and then 50 μl of Stop Solution was added to each well. After gentle mixing, the fluorescence signal was measured at an excitation wavelength of 560 nm and emission wavelength of 590 nm using the Hidex Chameleon V multiplate reader (Hidex Oy, Turku, Finland).
For the total LDH measurement, all the steps are same except a 2 μl of Lysis Solution (per 100 μl original volume) will be added to the each well to lyse the cells before CytoTox-ONE Reagents will be added.
For the LDH and ROS assays, individual values of each measurement were stored and average value of fluorescence signals of various repeats of each treatment at studied time point were calculated and compared. […] Viability (LDH) measurements contained 4-6 repeats depending on the study. […]

[3] = tested on: human primary hepatocytes; test: NAD+/NADH quantification in human hepatocytes; parameters: NADtot / NADH / NAD+ / NAD+/NADH: unit not given here; conditions: donor alpha, new nutrition at 48 h, N = 5; 14 (μM); 48 h + 3 h
Description: For the measurement of total NAD (NADtot=NADH+NAD^+) and NAD^+/NADH ratio, a NAD^+/NADH Quantification kit (MAK037) from Sigma was used. NAD functions as an electron carrier, fluctuating between the oxidized (NAD^+) and reduced (NADH) forms. In addition, NAD^+ plays critical roles in ADP-ribosylation reaction and as a substrate for sirtuins. According to the Sigma instruction, the NAD^+/NADH Quantification kit (Sigma) provides a convenient tool for sensitive detection of NAD, NADH and their ratio without requirement to purify them from samples. Important to notice is that the kit measures NADH and NAD^+ in whole cell including all cell organelles and compartments. Mitochondrial matrix is clearly dominant NADH producer from TCA and beta oxidation (consuming naturally the same amount of NAD^+ in redox reactions). Importantly, formed NADH is also typically oxidized into NAD^+ in the matrix by Complex I in ETC. As is well known anaerobic carbohydrate metabolism, i.e. glycolysis, in cytosol also consumes NAD^+ and produces NADH.
Cell culture in NADH-tests was like in Example 1.1. The change of the medium with DGAcs was conducted at 0 h, 24 h and 48 h. NAD measurements were made at 48+3 h in all cases. For CDP also HPA was tested, and for DOO no new nutrition at 48 h was added, i.e. test was conducted in fasting conditions.

human hepatocytes = test: Gene expression from hepatocytes lysates; conditions: donor three, N = 5; 14 (μM)

| Compound | ROS compared to 0 dose/control (in words) [1] | viability compared to 0 dose (in words) [2] | Change in NAD+/NADH vs. Control [3] [%] | NAD+ [3] | NAD+/NADH [3] | NADH [3] | NADtot [3] | CYP2B6 gene expression deviation from control (human hepatocytes) [%] | HO-1 gene expression deviation from control (human hepatocytes) [%] | PGC-1a gene expression deviation from control (human hepatocytes) [%] | decrease of viability ([2]; donor one, High Medium only, equimolar comparison, 20+20+1.5 h, FIG. 6) [%] |
| --- | --- | --- | --- | --- | --- | --- | --- | --- | --- | --- | --- |
| O=C(O)C(=O)CO [HPA, hydroxypyruvate] | decrease ROS levels significantly; also recorded: reduced ROS | modestly increase the viability | −47 | 0.010 | 0.045 | 0.222 | 0.232 | 7 | 1 | −2 | – |
| O=C(O)[C@@H](O)CO [LGA, L-glyceric acid] | decrease ROS levels significantly | modestly increase the viability | – | – | – | – | – | – | – | – | – |
| trolox [Vitamin E, reference compound] | – | – | – | – | – | – | – | – | – | – | ~23 |
